# Patent publication US20260325443A1, “OLFACTORY DELIVERY OF THERAPEUTIC PSYCHEDELICS” (Rocket Science Health Corp., priority 2023, published 2026)
# Values joined by “and” are separate entries in the source; they are usually repeats but may differ in a detail not shown here. Identical values can stand only once. Counter-ions that a name gives are not always drawn.
# Tests used:
# [1] = Plasma and tissue concentrations of ketamine via olfactory delivery compared to intravenous administration in rats (LC/MS/MS); format: in vivo, male Sprague Dawley rats; conditions: 5 mg/kg; for concentration at 5 min / concentration at 0.25 h / concentration at 0.5 h / concentration at 1 h / concentration at 1.5 h / concentration at 2 h / concentration at 200 min: rat, plasma; for concentration at 0.25 h: 15 min; for concentration at 0.5 h: 30 min; for concentration at 1 h: 60 min; for concentration at 1.5 h: 90 min; for concentration at 2 h: 120 min
# Protocol: Drug Administration and Sample Collection: Intravenous (IV) administration was conducted by 100 μL tail vein injection. Olfactory delivery (OD) administration was conducted by a. 0.699 mm diameter cannula inserted into the right nostril with a minimal angle of 20-degrees to the target of the correct meatus.
# Time course experiment and tissue concentration: 12 male Sprague Dawley rats (Age M+/−SD, Weight: 176.27-188.03 g) were administered Ketamine-HCl via IV or OD administration (resulting in two experimental groups, each with n=6). Ketamine-HCl was formulated according to the following procedures: For Ketamine-HCL 5 mg/kg OD: 24.64 mg Ketamine-HCL was added to 0.426 ml of saline, mixed well, and dissolved, with a solution concentration of 50 mg/ml. For Ketamine-HCL 5 mg/kg IV: 0.20 ml of 50 mg/ml Ketamine-HCL solution, was added to 0.60 ml of saline and mixed well to achieve a solution concentration of 12.5 mg/ml. Plasma time courses for 200 minutes were generated. Concentration of compound in brain, olfactory bulb, and plasma at t=200 minutes was quantified using LC/MS/MS.
# [2] = Visualizing olfactory cleft delivery with methylene blue (nasal endoscope imaging); format: in vivo, human; conditions: for Olfactory Residence Time: 0.1 mL, individual participants 2.01-2.05, at least 50% of fluid at olfactory cleft
# Protocol: Participants: Five healthy participants (ages 19+) with no history of sinonasal symptoms and no evidence of nasal inflammation were recruited for this study. Prior to recruitment of participants study procedures were approved by Providence Health Care research ethics board, (British Columbia, Canada) and conducted under Health Canada Investigational Testing Authorization #314993. All participants were assessed by a licensed otolaryngologist physician to confirm their eligibility. Participants completed two study visits during which a licensed otolaryngologist physician administered 0.1 mL of the visual dye tracer, methylene blue.
# Study Design: During the first visit, the methylene blue was administered using the Laminar Fluid Ejection method (1.5 mm cannula; velocity=4.5 m/s). During the second visit, methylene blue was administered using a conventional nasal spray device (Pharma systems Item #10272, UPC: 063636802714). The Pharma systems spray device was used in these experiments because it was the device normally used by the compounding pharmacy for intranasal delivery. It was the device patients and clinicians were used to at this clinic.
# Following delivery, the physician used a nasal endoscope to image the deposition of methylene blue to the olfactory cleft at up to five time points (1, 5, 8, 12, and 15 minutes following delivery). From each image, the physician judged whether at least 50% of the methylene blue fluid was delivered to the olfactory cleft. If <50% of the methylene blue was judged to have deposited in the olfactory cleft, imaging was stopped and that session's trial was completed.
# [3] = Effect of administration routes (OD, IN, IV) on plasma, brain and olfactory bulb drug concentrations in rats (LCMS); conditions: 15 min after administration, 5.0 mg/kg
# Protocol: The goal of this example was to compare nasal cannula delivery (OD) with the traditional IV and IN administration routes.
# Procedure: The three routes of administration were tested on rats. A compound formulation of ketamine (5.0 mg/kg), naloxone (0.5 mg/kg), diazepam (2.0 mg/kg), and ondansetron (1.0 mg/kg) was administer. 15 minutes after the drug was administered, rats were sacrificed and samples were taken from plasma, the olfactory bulb, and the brain. To assess each route of administration's efficacy, drug concentrations in each tissue were quantified using liquid chromatography-mass spectrometry (LCMS).
structure (smiles),measurement,setting,value
CNC1(c2ccccc2Cl)CCCCC1=O (centres unmarked) [Ketamine-HCl],concentration at 5 min,[1]; IV,1710 ng/mL
same,concentration at 0.25 h,[1]; IV,686 ng/mL
same,concentration at 0.5 h,[1]; IV,330 ng/mL
same,concentration at 1 h,[1]; IV,150 ng/mL
same,concentration at 1.5 h,[1]; IV,65.8 ng/mL
same,concentration at 2 h,[1]; IV,27.1 ng/mL
same,concentration at 200 min,[1]; IV,2.53 ng/mL
same,concentration at 5 min,[1]; OD,7600 ng/mL
same,concentration at 0.25 h,[1]; OD,7250 ng/mL
same,concentration at 0.5 h,[1]; OD,2630 ng/mL
same,concentration at 1 h,[1]; OD,383 ng/mL
same,concentration at 1.5 h,[1]; OD,149 ng/mL
same,concentration at 2 h,[1]; OD,63 ng/mL
same,concentration at 200 min,[1]; OD,5.3 ng/mL
CN(C)c1ccc2nc3ccc(=[N+](C)C)cc-3sc2c1 [Methylene Blue],Olfactory Residence Time,[2]; LFE Method (1.5 mm cannula; velocity=4.5 m/s),8 min and 5 min and 0 min and 1 min and 15 min
same,participants with successful delivery of >50% of the methylene blue to the olfactory cleft,[2]; Laminar Fluid Ejection method,Four of the five participants
same,Olfactory Residence Time,[2]; conventional nasal spray,0 min
same,delivery of at least 50% of the dye to the olfactory cleft,"[2]; conventional nasal spray, each of the five participants",failed to deliver at least 50% of the dye
CNC1(c2ccccc2Cl)CCCCC1=O (centres unmarked) [ketamine],"delivery to brain tissue, targeted to olfactory cleft (OD) vs traditional intranasal",[3],improved delivery to brain tissue compared to traditional intranasal sprays
same,"plasma concentration, OD vs IV",[1],higher plasma concentration of ketamine can be achieved with OD than IV
